{"source": "patent US12570641B2", "about": "“Solid forms of a CDK4 inhibitor” (Pfizer Inc., priority 2020, dated 2026)", "test": "Competitive slurry experiments in 2-propanol/1% water", "type": "physicochemical", "details": "based on the competition slurry experiments", "description": "Competitive slurry experiments were performed between Form 1 and Form 2 (Entry 1), and between Form 6 and Form 2 (Entry 2), in 2-propanol/1% water. Entry 1: […] The solids were collected with vacuum filtration and analyzed with PXRD. PXRD data was consistent with PF-07220060 monohydrate (Form 2). Entry 2: […] The solids were collected with vacuum filtration and analyzed with PXRD. PXRD data was consistent with PF-07220060 monohydrate (Form 2).", "data": [{"smiles": "CC(C)n1c(C(C)(C)O)nc2c(F)cc(-c3nc(N[C@@H]4CCOC[C@H]4O)ncc3Cl)cc21", "note": "[Form 2, 1,5-anhydro-3-({5-chloro-4-[4-fluoro-2-(2-hydroxypropan-2-yl)-1-(propan-2-yl)-1H-benzimidazol-6-yl]pyrimidin-2-yl}amino)-2,3-dideoxy-D-threo-pentitol monohydrate]", "values": [{"measurement": "relative humidity above which the form is thermodynamically stable", "result": "above 15 % RH"}]}]}
